# Columns and labels:
# Experiment in all cases: KinomeScan kinase profiling
# Format in all cases: binding
# Conditions in all cases: 10 μM
# [1] = target: T1, ABL1 (Homo sapiens, UniProt P00519)
# T1 construct: purchased Ambit Biosciences
# From the text: (§1) The selectivity of a given CK1α, CK1α-CK1δ, CK1α-CK1ε or CK1α-CK1δ-CK1ε inhibitor compound can be determined by testing the compound against a panel of known kinases. An example of such a kinase profiling technology is the “KinomeScan” from Ambit Biosciences in which compounds can be screened for their modulatory activities against more than 200 known kinases.
# [2] = target: T2, CAMK1 (Homo sapiens, UniProt Q14012)
# T2 construct: purchased Ambit Biosciences
# From the text: as §1
# [3] = target: T3, CAMK1D (Homo sapiens, UniProt Q8IU85)
# T3 construct: purchased Ambit Biosciences
# From the text: as §1
# [4] = target: T4, CAMK2A (Homo sapiens, UniProt Q9UQM7)
# T4 construct: purchased Ambit Biosciences
# From the text: as §1
# [5] = target: T5, CAMK2B (Homo sapiens, UniProt Q13554)
# T5 construct: purchased Ambit Biosciences
# From the text: as §1
# [6] = target: T6, CAMK2D (Homo sapiens, UniProt Q13557)
# T6 construct: purchased Ambit Biosciences
# T6 sequence (Q13557 whole entry): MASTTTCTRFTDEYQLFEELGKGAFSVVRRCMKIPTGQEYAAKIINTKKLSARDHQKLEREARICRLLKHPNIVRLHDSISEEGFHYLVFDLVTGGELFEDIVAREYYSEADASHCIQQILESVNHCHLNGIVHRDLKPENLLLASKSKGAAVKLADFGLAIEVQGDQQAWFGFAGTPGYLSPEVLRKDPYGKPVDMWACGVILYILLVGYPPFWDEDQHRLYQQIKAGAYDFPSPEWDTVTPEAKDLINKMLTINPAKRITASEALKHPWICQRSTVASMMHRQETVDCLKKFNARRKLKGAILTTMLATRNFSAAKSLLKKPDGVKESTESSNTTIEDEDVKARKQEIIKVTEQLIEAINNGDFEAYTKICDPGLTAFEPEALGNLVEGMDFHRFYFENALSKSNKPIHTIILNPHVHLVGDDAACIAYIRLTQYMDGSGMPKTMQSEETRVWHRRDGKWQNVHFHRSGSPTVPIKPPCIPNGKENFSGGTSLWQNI
# From the text: as §1
# [7] = target: T7, CAMK2G (Homo sapiens, UniProt Q13555)
# T7 construct: purchased Ambit Biosciences
# From the text: as §1
# [8] = target: T8, CAMKK1 (Homo sapiens, UniProt Q8N5S9)
# T8 construct: purchased Ambit Biosciences (San Diego, Calif.)
# T8 sequence (Q8N5S9 whole entry): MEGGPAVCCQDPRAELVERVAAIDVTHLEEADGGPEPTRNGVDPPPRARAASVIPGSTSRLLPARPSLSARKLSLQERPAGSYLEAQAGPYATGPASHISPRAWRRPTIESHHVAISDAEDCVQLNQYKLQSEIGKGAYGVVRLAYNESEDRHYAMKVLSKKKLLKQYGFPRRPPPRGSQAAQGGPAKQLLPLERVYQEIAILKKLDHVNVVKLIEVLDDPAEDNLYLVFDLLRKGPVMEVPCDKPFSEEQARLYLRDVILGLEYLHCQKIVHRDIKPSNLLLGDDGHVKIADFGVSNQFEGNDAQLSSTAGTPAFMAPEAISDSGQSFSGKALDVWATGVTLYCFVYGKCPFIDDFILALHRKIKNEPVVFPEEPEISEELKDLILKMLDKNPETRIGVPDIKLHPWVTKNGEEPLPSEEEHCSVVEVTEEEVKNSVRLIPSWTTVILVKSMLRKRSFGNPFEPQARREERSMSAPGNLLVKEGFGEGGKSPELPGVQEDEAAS
# From the text: as §1
# [9] = target: T9, CLK3 (Homo sapiens, UniProt P49761)
# T9 construct: purchased Ambit Biosciences (San Diego, Calif.)
# From the text: as §1
# [10] = target: T10, CLK4 (Homo sapiens, UniProt Q9HAZ1)
# T10 construct: purchased Ambit Biosciences (San Diego, Calif.)
# From the text: as §1
# [11] = target: T11, CSNK1G2 (Homo sapiens, UniProt P78368)
# T11 construct: purchased Ambit Biosciences (San Diego, Calif.)
# From the text: as §1
# [12] = target: T12, CSNK2A1 (Homo sapiens, UniProt P68400)
# T12 construct: purchased Ambit Biosciences (San Diego, Calif.)
# From the text: as §1
# [13] = target: T13, DAPK3 (Homo sapiens, UniProt O43293)
# T13 construct: purchased Ambit Biosciences (San Diego, Calif.)
# From the text: as §1
# [14] = target: T14, EGFR (Homo sapiens, UniProt P00533)
# T14 construct: purchased Ambit Biosciences (San Diego, Calif.)
# From the text: as §1
# [15] = target: T15, EPHA4 (Homo sapiens, UniProt P54764)
# T15 construct: purchased Ambit Biosciences (San Diego, Calif.)
# From the text: as §1
# [16] = target: T16, EPHB1 (Homo sapiens, UniProt P54762)
# T16 construct: purchased Ambit Biosciences (San Diego, Calif.)
# From the text: as §1
# [17] = target: T17, ERK2 (Homo sapiens, UniProt P28482)
# T17 construct: purchased Ambit Biosciences
# From the text: as §1
# [18] = target: T18, FER (Homo sapiens, UniProt P16591)
# T18 construct: purchased Ambit Biosciences
# From the text: as §1
# [19] = target: T19, FES (Homo sapiens, UniProt P07332)
# T19 construct: purchased Ambit Biosciences
# T19 sequence (P07332 whole entry): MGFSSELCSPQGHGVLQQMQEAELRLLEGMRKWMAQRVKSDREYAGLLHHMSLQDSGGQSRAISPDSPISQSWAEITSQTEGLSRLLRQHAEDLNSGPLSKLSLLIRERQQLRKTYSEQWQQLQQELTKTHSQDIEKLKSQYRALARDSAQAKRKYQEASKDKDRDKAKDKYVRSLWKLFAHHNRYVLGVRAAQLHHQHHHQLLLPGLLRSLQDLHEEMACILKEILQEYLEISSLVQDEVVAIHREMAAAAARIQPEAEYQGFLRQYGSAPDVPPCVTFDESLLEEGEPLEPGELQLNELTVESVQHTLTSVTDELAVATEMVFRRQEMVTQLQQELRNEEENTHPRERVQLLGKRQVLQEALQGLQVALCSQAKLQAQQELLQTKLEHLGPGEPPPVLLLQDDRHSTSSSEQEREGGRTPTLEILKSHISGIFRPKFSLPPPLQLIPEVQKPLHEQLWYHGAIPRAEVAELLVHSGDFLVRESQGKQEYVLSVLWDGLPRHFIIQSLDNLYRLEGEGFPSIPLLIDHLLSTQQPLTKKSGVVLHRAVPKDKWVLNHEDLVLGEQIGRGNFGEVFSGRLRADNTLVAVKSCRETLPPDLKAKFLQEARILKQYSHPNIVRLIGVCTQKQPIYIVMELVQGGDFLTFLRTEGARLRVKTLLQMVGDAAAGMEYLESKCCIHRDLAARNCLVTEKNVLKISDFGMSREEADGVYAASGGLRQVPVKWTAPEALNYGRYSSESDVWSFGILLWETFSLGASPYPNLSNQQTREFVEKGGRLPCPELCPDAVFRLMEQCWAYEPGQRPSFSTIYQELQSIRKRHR
# From the text: as §1
# [20] = target: T20, FLT3 (Homo sapiens, UniProt P36888)
# T20 construct: purchased Ambit Biosciences
# From the text: as §1
# [21] = target: T21, FLT4 (Homo sapiens, UniProt P35916)
# T21 construct: purchased Ambit Biosciences
# From the text: as §1
# [22] = target: T22, JAK1(Kin.Dom1) (Homo sapiens, UniProt P23458)
# T22 construct: JAK1(Kin.Dom1); purchased Ambit Biosciences
# From the text: as §1
# [23] = target: MARK2 (Homo sapiens, UniProt Q7KZI7)
# MARK2, sequence (Q7KZI7 whole entry): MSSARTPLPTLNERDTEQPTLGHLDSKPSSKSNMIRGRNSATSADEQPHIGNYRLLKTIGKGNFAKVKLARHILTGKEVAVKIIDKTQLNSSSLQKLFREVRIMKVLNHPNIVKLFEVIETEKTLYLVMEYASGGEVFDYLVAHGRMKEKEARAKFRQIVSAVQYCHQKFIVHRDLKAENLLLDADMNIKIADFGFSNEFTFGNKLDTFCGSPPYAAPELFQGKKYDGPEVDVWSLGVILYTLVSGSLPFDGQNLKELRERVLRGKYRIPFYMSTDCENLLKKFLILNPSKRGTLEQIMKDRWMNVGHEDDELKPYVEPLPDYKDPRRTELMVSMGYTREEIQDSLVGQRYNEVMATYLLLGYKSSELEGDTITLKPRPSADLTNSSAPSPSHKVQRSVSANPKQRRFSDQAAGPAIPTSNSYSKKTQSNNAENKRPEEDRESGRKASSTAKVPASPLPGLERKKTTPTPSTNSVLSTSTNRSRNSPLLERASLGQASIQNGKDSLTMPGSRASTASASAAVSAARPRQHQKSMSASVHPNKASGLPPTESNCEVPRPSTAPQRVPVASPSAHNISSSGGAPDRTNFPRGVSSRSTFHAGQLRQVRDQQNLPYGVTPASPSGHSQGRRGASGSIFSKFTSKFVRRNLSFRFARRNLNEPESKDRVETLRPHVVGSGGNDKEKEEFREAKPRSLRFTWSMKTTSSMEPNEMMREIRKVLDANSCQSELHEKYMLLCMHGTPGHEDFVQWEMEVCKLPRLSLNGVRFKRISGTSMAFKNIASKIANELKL
# From the text: as §1
# [24] = target: MKNK2 (Homo sapiens, UniProt Q9HBH9)
# From the text: as §1
# [25] = target: NEK9 (Homo sapiens, UniProt Q8TD19)
# From the text: as §1
# [26] = target: PAK1 (Homo sapiens, UniProt Q13153)
# From the text: as §1
# [27] = target: PDGFRA (Homo sapiens, UniProt P16234)
# From the text: as §1
# [28] = target: PDPK1 (Homo sapiens, UniProt O15530)
# From the text: as §1
# [29] = target: PHKG2 (Homo sapiens, UniProt P15735)
# From the text: as §1
# [30] = target: T23, PTK2 (Homo sapiens, UniProt Q05397)
# T23 construct: purchased Ambit Biosciences
# From the text: as §1
# [31] = target: T24, PTK2B (Homo sapiens, UniProt Q14289)
# T24 construct: purchased Ambit Biosciences
# T24 sequence (Q14289 whole entry): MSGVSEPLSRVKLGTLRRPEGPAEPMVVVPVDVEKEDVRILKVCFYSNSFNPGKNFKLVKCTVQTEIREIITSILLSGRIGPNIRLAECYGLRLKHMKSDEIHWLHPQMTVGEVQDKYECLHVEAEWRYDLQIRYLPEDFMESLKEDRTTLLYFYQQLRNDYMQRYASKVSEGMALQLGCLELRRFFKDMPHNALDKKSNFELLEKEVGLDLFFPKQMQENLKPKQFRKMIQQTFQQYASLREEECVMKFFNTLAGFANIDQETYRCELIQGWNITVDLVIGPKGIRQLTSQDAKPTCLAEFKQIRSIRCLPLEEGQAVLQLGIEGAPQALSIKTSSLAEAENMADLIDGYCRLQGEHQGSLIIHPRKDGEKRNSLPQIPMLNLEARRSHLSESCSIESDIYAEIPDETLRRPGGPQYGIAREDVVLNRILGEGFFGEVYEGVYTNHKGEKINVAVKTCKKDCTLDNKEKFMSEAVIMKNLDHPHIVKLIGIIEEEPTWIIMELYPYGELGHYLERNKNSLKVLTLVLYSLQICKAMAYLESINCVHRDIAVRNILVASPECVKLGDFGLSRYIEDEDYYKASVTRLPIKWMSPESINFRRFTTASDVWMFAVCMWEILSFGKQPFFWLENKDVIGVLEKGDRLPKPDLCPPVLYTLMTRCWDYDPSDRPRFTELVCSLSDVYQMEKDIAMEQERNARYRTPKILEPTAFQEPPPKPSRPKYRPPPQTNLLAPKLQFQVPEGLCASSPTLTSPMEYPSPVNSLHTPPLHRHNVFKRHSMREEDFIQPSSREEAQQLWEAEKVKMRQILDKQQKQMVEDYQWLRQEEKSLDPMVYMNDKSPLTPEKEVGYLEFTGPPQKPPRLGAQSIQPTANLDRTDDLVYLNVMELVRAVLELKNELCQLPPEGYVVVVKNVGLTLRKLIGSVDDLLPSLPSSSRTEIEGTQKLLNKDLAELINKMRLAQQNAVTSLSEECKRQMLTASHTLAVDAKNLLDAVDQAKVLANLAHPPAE
# From the text: as §1
# [32] = target: T25, ROS1 (Homo sapiens, UniProt P08922)
# T25 construct: purchased Ambit Biosciences
# From the text: as §1
# [33] = target: T26, SLK (Homo sapiens, UniProt Q9H2G2)
# T26 construct: purchased Ambit Biosciences
# From the text: as §1
# [34] = target: T27, SRC (Homo sapiens, UniProt P12931)
# T27 construct: purchased Ambit Biosciences
# T27 sequence (P12931 whole entry): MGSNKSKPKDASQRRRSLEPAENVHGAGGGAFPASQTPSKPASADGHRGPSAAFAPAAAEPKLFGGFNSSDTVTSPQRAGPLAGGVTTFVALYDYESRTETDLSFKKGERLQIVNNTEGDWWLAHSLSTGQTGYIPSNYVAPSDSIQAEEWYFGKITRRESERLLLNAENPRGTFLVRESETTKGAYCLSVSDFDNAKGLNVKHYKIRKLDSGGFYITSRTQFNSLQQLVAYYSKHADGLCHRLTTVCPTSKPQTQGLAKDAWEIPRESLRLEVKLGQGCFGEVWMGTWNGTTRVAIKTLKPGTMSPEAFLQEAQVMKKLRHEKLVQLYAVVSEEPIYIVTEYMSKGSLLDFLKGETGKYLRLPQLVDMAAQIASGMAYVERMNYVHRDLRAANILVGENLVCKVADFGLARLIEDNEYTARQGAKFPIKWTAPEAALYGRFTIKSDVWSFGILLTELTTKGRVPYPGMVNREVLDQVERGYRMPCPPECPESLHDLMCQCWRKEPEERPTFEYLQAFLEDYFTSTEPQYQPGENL
# From the text: as §1
# [35] = target: T28, STK11 (Homo sapiens, UniProt Q15831)
# T28 construct: purchased Ambit Biosciences
# T28 sequence (Q15831 whole entry): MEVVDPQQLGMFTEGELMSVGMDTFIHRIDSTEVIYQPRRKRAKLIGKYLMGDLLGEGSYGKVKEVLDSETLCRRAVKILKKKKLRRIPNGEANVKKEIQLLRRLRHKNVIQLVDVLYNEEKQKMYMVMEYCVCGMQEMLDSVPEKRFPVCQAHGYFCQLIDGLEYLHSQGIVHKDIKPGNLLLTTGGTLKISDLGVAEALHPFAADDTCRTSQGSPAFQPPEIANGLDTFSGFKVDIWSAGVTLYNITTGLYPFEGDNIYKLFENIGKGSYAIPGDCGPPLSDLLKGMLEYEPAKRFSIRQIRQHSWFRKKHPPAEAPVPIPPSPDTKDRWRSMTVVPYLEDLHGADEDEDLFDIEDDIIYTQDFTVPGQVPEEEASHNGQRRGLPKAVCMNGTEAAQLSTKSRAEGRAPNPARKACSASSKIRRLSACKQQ
# From the text: as §1
# [36] = target: T29, STK16 (Homo sapiens, UniProt O75716)
# T29 construct: purchased Ambit Biosciences
# T29 sequence (O75716 whole entry): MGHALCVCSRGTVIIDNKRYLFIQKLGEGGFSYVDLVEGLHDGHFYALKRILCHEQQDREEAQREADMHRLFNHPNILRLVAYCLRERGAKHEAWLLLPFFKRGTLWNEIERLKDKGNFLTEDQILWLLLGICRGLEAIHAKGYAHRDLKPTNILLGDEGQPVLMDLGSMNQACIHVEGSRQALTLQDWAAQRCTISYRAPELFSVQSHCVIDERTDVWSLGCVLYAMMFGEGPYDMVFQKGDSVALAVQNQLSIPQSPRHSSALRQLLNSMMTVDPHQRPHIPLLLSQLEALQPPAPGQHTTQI
# From the text: as §1
# [37] = target: T30, STK17B (Homo sapiens, UniProt O94768)
# T30 construct: purchased Ambit Biosciences
# From the text: as §1
# [38] = target: T31, STK36 (Homo sapiens, UniProt Q9NRP7)
# T31 construct: purchased Ambit Biosciences
# From the text: as §1
# [39] = target: T32, TRKA (Homo sapiens, UniProt P04629)
# T32 construct: purchased Ambit Biosciences
# From the text: as §1
structure (smiles),measurement,setting,value
"COc1cc(OC)c(C=C2C(O)=Nc3ccccc32)c(OC)c1 [IC261, 3-[(2,4,6-trimethoxyphenyl)methylidenyl]-indolin-2-one]",% Binding,[1],<50%
same,% Binding,[2],<50%
same,% Binding,[3],<50%
same,% Binding,[4],<50%
same,% Binding,[5],<50%
same,% Binding,[6],<50%
same,% Binding,[7],<50%
same,% Binding,[8],<50%
same,% Binding,[9],<50%
same,% Binding,[10],<50%
same,% Binding,[11],<50%
same,% Binding,[12],<50%
same,% Binding,[13],<50%
same,% Binding,[14],<50%
same,% Binding,[15],<50%
same,% Binding,[16],<50%
same,% Binding,[17],<50%
same,% Binding,[18],<50%
same,% Binding,[19],<50%
same,% Binding,[20],<50%
same,% Binding,[21],<50%
same,% Binding,[22],<50%
same,% Binding,[23],<50%
same,% Binding,[24],<50%
same,% Binding,[25],<50%
same,% Binding,[26],<50%
same,% Binding,[27],<50%
same,% Binding,[28],<50%
same,% Binding,[29],<50%
same,% Binding,[30],<50%
same,% Binding,[31],<50%
same,% Binding,[32],<50%
same,% Binding,[33],<50%
same,% Binding,[34],<50%
same,% Binding,[35],<50%
same,% Binding,[36],<50%
same,% Binding,[37],<50%
same,% Binding,[38],<50%
same,% Binding,[39],<50%
"NC(=O)c1cc(-c2ccncc2)c[nH]1 [Compound A, 4-Pyridin-4-yl-1H-pyrrole-2-carboxylic acid amide]",% Binding,[1],<50%
same,% Binding,[2],<50%
same,% Binding,[3],<50%
same,% Binding,[4],<50%
same,% Binding,[5],<50%
same,% Binding,[6],<50%
same,% Binding,[7],<50%
same,% Binding,[8],<50%
same,% Binding,[9],<50%
same,% Binding,[10],97%
same,% Binding,[11],76%
same,% Binding,[12],<50%
same,% Binding,[13],74%
same,% Binding,[14],<50%
same,% Binding,[15],<50%
same,% Binding,[16],<50%
same,% Binding,[17],<50%
same,% Binding,[18],<50%
same,% Binding,[19],<50%
same,% Binding,[20],<50%
same,% Binding,[21],<50%
same,% Binding,[22],<50%
same,% Binding,[23],<50%
same,% Binding,[24],<50%
same,% Binding,[25],<50%
same,% Binding,[26],<50%
same,% Binding,[27],<50%
same,% Binding,[28],<50%
same,% Binding,[29],<50%
same,% Binding,[30],<50%
same,% Binding,[31],<50%
same,% Binding,[32],<50%
same,% Binding,[33],<50%
same,% Binding,[34],<50%
same,% Binding,[35],<50%
same,% Binding,[36],<50%
same,% Binding,[37],96%
same,% Binding,[38],<50%
same,% Binding,[39],<50%

# Source: patent US20090099237A1, “Methods of treating inflammatory diseases” (Roche Palo Alto LLC, priority 2007, published 2009)
